Source: ChEMBL document CHEMBL3797106, “Potent and Selective Agonists of Sphingosine 1-Phosphate 1 (S1P1): Discovery and SAR of a Novel Isoxazole Based Series” (J Med Chem, 2016)
Active and inactive are the calls of the source. The rule behind the calls is not given here.

Experiments:
[1] = system: Rattus norvegicus; assay: Reduction of blood lymphocyte level in po dosed Lewis rat measured at 4 to 24 hrs by hematology analyzer; assay type: functional, organism-based
[2] = biological target: T1, Sphingosine 1-phosphate receptor 1 (Homo sapiens, UniProt P21453); assay: Induction of internalization of C-terminal GFP-fused human S1P1 receptor expressed in CHO […] assessed as remaining receptor level in cell membrane at 4.6 nM preincubated for 50 mins followed by compound washout measured at 16 hrs relative to control; assay type: cell-based
T1 sequence (P21453 whole entry, the tested form may be a part): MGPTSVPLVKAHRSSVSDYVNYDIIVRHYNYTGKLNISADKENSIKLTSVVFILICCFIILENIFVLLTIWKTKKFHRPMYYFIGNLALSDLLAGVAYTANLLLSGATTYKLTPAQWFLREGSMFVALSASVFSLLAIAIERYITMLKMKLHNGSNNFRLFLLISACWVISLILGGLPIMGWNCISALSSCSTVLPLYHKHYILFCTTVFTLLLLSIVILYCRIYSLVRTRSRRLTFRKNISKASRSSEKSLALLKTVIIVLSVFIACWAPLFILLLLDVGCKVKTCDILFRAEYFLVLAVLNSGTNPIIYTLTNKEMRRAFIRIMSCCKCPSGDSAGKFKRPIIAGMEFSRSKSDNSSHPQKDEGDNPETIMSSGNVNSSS

[3] = Volume of distribution at steady state in dog at 1 mg/kg, iv; assay type: ADME, organism-based, Canis lupus familiaris; conditions: in vivo, read-out: Vdss
[4] = biological target: Voltage-gated inwardly rectifying potassium channel KCNH2 (Homo sapiens, UniProt Q12809); assay: Inhibition of human ERG by patch clamp method
Voltage-gated inwardly rectifying potassium channel KCNH2, sequence (Q12809 whole entry): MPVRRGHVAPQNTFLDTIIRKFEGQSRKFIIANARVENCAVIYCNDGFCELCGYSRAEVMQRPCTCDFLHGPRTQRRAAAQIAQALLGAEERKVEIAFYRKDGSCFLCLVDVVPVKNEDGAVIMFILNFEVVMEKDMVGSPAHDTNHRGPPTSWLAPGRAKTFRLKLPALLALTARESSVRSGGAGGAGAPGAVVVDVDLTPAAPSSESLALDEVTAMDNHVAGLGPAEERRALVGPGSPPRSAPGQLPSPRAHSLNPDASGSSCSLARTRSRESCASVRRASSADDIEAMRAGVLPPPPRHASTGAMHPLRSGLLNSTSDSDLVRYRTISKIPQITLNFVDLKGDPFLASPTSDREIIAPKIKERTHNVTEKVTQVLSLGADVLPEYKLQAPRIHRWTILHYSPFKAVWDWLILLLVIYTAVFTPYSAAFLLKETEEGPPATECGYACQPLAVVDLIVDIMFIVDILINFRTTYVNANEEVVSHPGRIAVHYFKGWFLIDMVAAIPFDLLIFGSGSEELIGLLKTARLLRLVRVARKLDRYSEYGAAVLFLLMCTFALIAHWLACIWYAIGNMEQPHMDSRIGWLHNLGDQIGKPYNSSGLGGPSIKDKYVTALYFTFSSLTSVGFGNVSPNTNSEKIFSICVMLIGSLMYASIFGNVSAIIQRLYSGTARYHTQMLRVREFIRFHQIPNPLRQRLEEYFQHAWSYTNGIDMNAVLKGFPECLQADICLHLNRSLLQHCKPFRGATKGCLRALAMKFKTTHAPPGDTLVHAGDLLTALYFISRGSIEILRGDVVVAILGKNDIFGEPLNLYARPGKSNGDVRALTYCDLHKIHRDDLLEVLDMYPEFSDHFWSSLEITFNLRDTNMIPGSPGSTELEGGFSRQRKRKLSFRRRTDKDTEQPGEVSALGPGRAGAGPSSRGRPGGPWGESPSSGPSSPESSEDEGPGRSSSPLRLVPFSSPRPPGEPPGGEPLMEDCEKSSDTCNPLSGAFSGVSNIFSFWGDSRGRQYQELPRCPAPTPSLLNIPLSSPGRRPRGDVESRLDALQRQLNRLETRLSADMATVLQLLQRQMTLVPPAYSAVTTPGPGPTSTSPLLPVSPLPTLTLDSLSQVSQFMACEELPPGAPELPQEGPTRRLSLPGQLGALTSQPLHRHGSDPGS

[5] = Oral bioavailability in cynomolgus monkey at 5 mg/kg; assay type: ADME, organism-based, Macaca fascicularis; conditions: in vivo
[6] = system: Cynomolgus monkey; assay: Clearance in cynomolgus monkey at 2 mg/kg, iv relative to hepatic blood flow; assay type: ADME, organism-based, Macaca fascicularis; conditions: in vivo
[7] = Permeability of the compound at pH 7.4 by PAMPA; assay type: ADME; conditions: read-out: permeability
[8] = Plasma protein binding in human; assay type: ADME, cell-free; conditions: read-out: PPB (converted)
[9] = Plasma protein binding in mouse; assay type: ADME, cell-free; conditions: read-out: PPB
[10] = Volume of distribution at steady state in rat at 2 mg/kg, iv; assay type: ADME, organism-based; conditions: in vivo, read-out: Vdss
[11] = biological target: T2, Cytochrome P450 1A2 (Homo sapiens, UniProt P05177); assay: Inhibition of CYP1A2 (unknown origin); assay type: ADME
T2 sequence (P05177 whole entry): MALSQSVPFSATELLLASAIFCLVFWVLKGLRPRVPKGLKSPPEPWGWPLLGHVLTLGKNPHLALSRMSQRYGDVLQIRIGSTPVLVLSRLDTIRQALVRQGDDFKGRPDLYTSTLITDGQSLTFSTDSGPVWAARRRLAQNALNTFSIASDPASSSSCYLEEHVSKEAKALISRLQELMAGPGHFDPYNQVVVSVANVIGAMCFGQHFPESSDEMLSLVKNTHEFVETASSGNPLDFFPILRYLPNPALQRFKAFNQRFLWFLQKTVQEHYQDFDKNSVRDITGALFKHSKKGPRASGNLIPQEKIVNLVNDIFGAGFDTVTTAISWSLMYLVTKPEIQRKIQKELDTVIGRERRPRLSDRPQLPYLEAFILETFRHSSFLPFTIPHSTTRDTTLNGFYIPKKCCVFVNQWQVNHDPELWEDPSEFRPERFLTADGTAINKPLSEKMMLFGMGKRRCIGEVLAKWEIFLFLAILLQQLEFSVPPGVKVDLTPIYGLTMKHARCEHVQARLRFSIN

[12] = Dissociation constant, pKa of the compound; assay type: physicochemical
[13] = Lipophilicity, log D of the compound at pH 6.5; assay type: physicochemical; conditions: buffer
[14] = biological target: Cytochrome P450 2C19 (Homo sapiens, UniProt P33261); assay: Inhibition of CYP2C19 (unknown origin); assay type: ADME
Cytochrome P450 2C19, sequence (P33261 whole entry): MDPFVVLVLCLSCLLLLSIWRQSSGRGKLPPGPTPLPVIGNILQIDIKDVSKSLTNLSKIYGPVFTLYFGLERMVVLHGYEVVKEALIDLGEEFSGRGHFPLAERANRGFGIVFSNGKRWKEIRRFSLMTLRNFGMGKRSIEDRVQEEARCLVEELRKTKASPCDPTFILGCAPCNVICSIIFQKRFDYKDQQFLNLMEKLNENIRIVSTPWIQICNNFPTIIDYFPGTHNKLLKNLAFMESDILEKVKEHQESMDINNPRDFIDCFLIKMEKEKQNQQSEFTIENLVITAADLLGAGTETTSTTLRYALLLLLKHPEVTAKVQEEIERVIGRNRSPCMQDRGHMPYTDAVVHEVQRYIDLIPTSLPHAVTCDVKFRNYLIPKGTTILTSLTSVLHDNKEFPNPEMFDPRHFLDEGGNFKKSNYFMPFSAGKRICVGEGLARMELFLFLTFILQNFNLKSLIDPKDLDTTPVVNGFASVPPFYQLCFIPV

[15] = system: Rattus norvegicus; assay: Antiarthritic activity in complete Freund's adjuvant-induced Lewis rat arthritis model assessed as suppression of paw swelling at 0.03 mg/kg, po qd for 21 days started from day of immunization measured 3 times per week of compound dosing by water displacement plethysmometry; assay type: functional, organism-based
[16] = system: Rattus norvegicus; assay: Antiarthritic activity in po dosed complete Freund's adjuvant-induced Lewis rat arthritis model assessed as suppression of paw swelling administered as qd for 21 days started from day of immunization measured 3 times per week of compound dosing by water displacement plethysmometry; assay type: functional; conditions: 504 h
[17] = biological target: T3, Cytochrome P450 2B6 (Homo sapiens, UniProt P20813); assay: Inhibition of CYP2B6 (unknown origin); assay type: ADME
T3 sequence (P20813 whole entry): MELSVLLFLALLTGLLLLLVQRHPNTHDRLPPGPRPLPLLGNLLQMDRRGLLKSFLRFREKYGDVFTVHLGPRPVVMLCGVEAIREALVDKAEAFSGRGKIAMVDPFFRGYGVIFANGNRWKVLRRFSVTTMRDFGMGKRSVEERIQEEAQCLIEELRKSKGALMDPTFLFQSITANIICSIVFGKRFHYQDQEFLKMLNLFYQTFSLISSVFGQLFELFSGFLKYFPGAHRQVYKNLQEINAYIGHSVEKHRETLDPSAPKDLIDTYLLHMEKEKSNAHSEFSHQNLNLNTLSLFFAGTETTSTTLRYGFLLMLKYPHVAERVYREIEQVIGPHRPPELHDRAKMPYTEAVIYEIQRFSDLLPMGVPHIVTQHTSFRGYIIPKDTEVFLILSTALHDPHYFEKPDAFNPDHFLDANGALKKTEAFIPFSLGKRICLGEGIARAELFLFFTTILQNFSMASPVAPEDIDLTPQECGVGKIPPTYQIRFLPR

[18] = biological target: Sphingosine 1-phosphate receptor 3 (Homo sapiens, UniProt Q99500); assay: Agonist activity at human S1P3 receptor expressed in EDG3-Ga15-bla HEK293T cell membranes after 45 mins by [35S]-GTPgammaS binding assay; assay type: functional, HEK-293T
Sphingosine 1-phosphate receptor 3, sequence (Q99500 whole entry): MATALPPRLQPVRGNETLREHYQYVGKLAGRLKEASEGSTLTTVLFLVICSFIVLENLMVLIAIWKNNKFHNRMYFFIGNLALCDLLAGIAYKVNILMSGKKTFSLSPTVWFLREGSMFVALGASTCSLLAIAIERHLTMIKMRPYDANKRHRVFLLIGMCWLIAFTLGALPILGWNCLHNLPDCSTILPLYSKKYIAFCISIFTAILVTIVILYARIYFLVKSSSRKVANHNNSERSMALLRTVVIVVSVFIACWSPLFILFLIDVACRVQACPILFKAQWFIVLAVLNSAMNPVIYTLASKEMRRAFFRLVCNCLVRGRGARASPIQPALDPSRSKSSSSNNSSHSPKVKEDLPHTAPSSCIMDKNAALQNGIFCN

[19] = Tmax in cynomolgus monkey at 5 mg/kg, po; assay type: ADME, organism-based, Macaca fascicularis; conditions: in vivo
[20] = organism: Homo sapiens; assay: Inhibition of calcium channel (unknown origin) at 10 uM by patch clamp method relative to control
[21] = system: Rattus norvegicus; assay: Antiarthritic activity in po dosed complete Freund's adjuvant-induced Lewis rat arthritis model assessed as inhibition of paw inflammation administered as qd for 21 days started from day of immunization; assay type: functional, organism-based
[22] = system: Rattus norvegicus; assay: Reduction of blood lymphocyte level in Lewis rat at 0.03 mg/kg, po measured at 24 hrs by hematology analyzer relative to vehicle-treated control; assay type: functional; set-up: scale not given: the % may be the effect or the level left
[23] = biological target: T1, Sphingosine 1-phosphate receptor 1; assay: Induction of internalization of C-terminal GFP-fused human S1P1 receptor expressed in CHO […] assessed as remaining receptor level in cell membrane at 4.6 nM preincubated for 50 mins followed by compound washout measured at 4 hrs relative to control; assay type: cell-based
[24] = Plasma concentration in Lewis rat at 1 mg/kg, po measured at 24 hrs; assay type: ADME, organism-based
[25] = system: Rattus norvegicus; assay: Antiarthritic activity in complete Freund's adjuvant-induced Lewis rat arthritis model assessed as suppression of paw swelling at 0.5 to 3 mg/kg, po qd for 21 days started from day of immunization measured 3 times per week of compound dosing by water displacement plethysmometry; assay type: functional, organism-based
[26] = system: Canis familiaris; assay: Ratio of Cmax to Cmin in dog at 1 mg/kg, po; assay type: ADME, organism-based, Canis lupus familiaris; conditions: in vivo
[27] = system: Mus musculus; assay: Inhibition of demyelination in spinal cord of po dosed C57BL/6 mouse experimental autoimmune encephalomyelitis model of multiple sclerosis administered as qd for 24 days started from day of immunization; assay type: functional, organism-based
[28] = Cmax in dog at 1 mg/kg, po; assay type: ADME, organism-based, Canis lupus familiaris; set-up: dose 1 mg/kg, route oral; conditions: in vivo
[29] = Mean residence time in rat at 2 mg/kg, iv; assay type: ADME, organism-based; conditions: in vivo
[30] = Cmax in cynomolgus monkey at 5 mg/kg, po; assay type: ADME, organism-based, Macaca fascicularis; set-up: dose 5 mg/kg, route oral; conditions: in vivo
[31] = Volume of distribution at steady state in mouse at 2 mg/kg, iv; assay type: ADME, organism-based; conditions: in vivo, read-out: Vdss
[32] = system: Mus musculus; assay: Inhibition of inflammation in spinal cord of po dosed C57BL/6 mouse experimental autoimmune encephalomyelitis model of multiple sclerosis administered as qd for 24 days started from day of immunization; assay type: functional, organism-based
[33] = Oral bioavailability in dog at 1 mg/kg; assay type: ADME, organism-based, Canis lupus familiaris; conditions: in vivo

For O=C(O)C1CN(Cc2ccc(-c3noc(-c4onc(-c5ccccc5)c4C(F)(F)F)n3)cc2)C1, the Activity [1] was “Dose-dependent effect”, the Activity [2] was 40% and the Vd [3] was 0.7 L/kg. It also gave an IC50 [4] of 18 µM, a bioavailability [5] of 70% and a CL [6] of 12%. It also gave a Papp [7] of 103 ×10⁻⁶ cm/s, a fraction unbound [8] of 0.003 and a fraction unbound [9] of 0.001. The Vd [10] was 1.4 L/kg, the IC50 [11] was over 40 µM and the pKa [12] was 3.7. For the same compound, the logD [13] was 2.68, the IC50 [14] was over 40 µM and the Activity [15] was “inactive”. It also gave an ED50 [16] of 0.05 mg/kg, an IC50 [17] of over 40 µM and an EC50 [18] of 1.6 µM. For the same compound, the Tmax [19] was 1 h, the inhibition [20] was 12% and the inhibition [21] was “Dose-dependent effect”. For the same compound, the Activity [22] was 45%, the Activity [23] was 20% and the concentration at 24 h [24] was 700 nM. For the same compound, the Activity [25] was “Active”, the Ratio [26] was 9 and the inhibition [27] was “Dose-dependent effect”. It also gave a Cmax [28] of 1300 nM, an MRT [29] of 14 h and a Cmax [30] of 4000 nM. For the same compound, the Vd [31] was 0.2 L/kg, the inhibition [32] was “Dose-dependent effect” and the bioavailability [33] was 45%.
